{
  "source": "patent US6355799B1",
  "about": "“Substituted benzene compounds, process for their preparation, and herbicidal and defoliant compositions containing them” (ISK Americas Incorporated, priority 1997, dated 2002)",
  "format_in_all_cases": "in vivo",
  "key": {"[1]": {"test_system": "redroot pigweed (Amaranthus retroflexus, AMARE)", "assay": "Pre-emerge test, greenhouse herbicide activity screening", "settings": "pre-emerge, rated 14 days after application, 0 = no damage, 100 = complete death", "summary_of_the_method": "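Compounds in acetone were track-sprayed at 15-1000 g ai/ha (187 l/ha) on sandy loam pots: pre-emerge one day after seeding, post-emerge at 2-3 leaf stage with 0.25% v/v non-ionic surfactant. Phytotoxicity was rated 14 days later on a 0 (no damage) to 100 (complete death) scale.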"}, "[2]": {"test_system": "barnyardgrass (Echinochloa crus-galli, ECHCG)", "assay": "Pre-emerge test, greenhouse herbicide activity screening", "settings": "pre-emerge, rated 14 days after application, 0 = no damage, 100 = complete death", "summary_of_the_method": "(§1)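 Sandy loam pots; pre-emerge: sown 1 d pre-spray, surface-watered after, then bottom-watered. Post-emerge: sown 8–21 d before, 2–3 leaf stage, + 0.25% v/v NIS, bottom-watered. Acetone, 187 l/ha track spray, 15–1000 g ai/ha. 0–100 injury score, day 14.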"}, "[3]": {"test_system": "common ragweed (Ambrosia artemisizfolia L., AMBEL)", "assay": "Pre-emerge test, greenhouse herbicide activity screening", "settings": "pre-emerge, rated 14 days after application, 0 = no damage, 100 = complete death", "summary_of_the_method": "as §1"}, "[4]": {"test_system": "green foxtail (Setaria viridis, SETVI)", "assay": "Pre-emerge test, greenhouse herbicide activity screening", "settings": "pre-emerge, rated 14 days after application, 0 = no damage, 100 = complete death", "summary_of_the_method": "as §1"}, "[5]": {"test_system": "ivyleaf morningglory (Ipomoea hederacea, IPOHE)", "assay": "Pre-emerge test, greenhouse herbicide activity screening", "settings": "pre-emerge, rated 14 days after application, 0 = no damage, 100 = complete death", "summary_of_the_method": "as §1"}, "[6]": {"test_system": "johnsongrass (Sorghum halepense, SORHA)", "assay": "Pre-emerge test, greenhouse herbicide activity screening", "settings": "pre-emerge, rated 14 days after application, 0 = no damage, 100 = complete death", "summary_of_the_method": "as §1"}, "[7]": {"test_system": "lambsquarters (Chenopodium album, CHEAL)", "assay": "Pre-emerge test, greenhouse herbicide activity screening", "settings": "pre-emerge, rated 14 days after application, 0 = no damage, 100 = complete death", "summary_of_the_method": "as §1"}, "[8]": {"test_system": "large crabgrass (Digitaria sanguinalis, DIGSA)", "assay": "Pre-emerge test, greenhouse herbicide activity screening", "settings": "pre-emerge, rated 14 days after application, 0 = no damage, 100 = complete death", "summary_of_the_method": "as §1"}, "[9]": {"test_system": "sicklepod (Cassia obtusifolia, CASOB)", "assay": "Pre-emerge test, greenhouse herbicide activity screening", "settings": "pre-emerge, rated 14 days after application, 0 = no damage, 100 = complete death", "summary_of_the_method": "as §1"}, "[10]": {"test_system": "velvetleaf (Abutilon theophrasti, ABUTH)", "assay": "Pre-emerge test, greenhouse herbicide activity screening", "settings": "pre-emerge, rated 14 days after application, 0 = no damage, 100 = complete death", "summary_of_the_method": "as §1"}, "[11]": {"test_system": "field corn (Zea mays L., var. Dekalb 535, CORN)", "assay": "Pre-emerge test, crop safety", "settings": "pre-emerge, rated 14 days after application, 0 = no damage, 100 = complete death", "summary_of_the_method": "(§2)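 Plants grown in 10 cm pots of sandy loam mix received acetone-dissolved compounds through a moving flat-fan nozzle. Doses ranged from 15 to 1000 g ai/ha. Pre-emerge pots were seeded one day earlier, post-emerge pots 8–21 days earlier. Fourteen days on, each pot was graded 0–100 for damage.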"}, "[12]": {"test_system": "upland rice (Oryza sp., var. Tebonnet, RICE)", "assay": "Pre-emerge test, crop safety", "settings": "pre-emerge, rated 14 days after application, 0 = no damage, 100 = complete death", "summary_of_the_method": "as §2"}, "[13]": {"test_system": "barnyardgrass (Echinochloa crus-galli, ECHCG)", "assay": "Post-emerge test, greenhouse herbicide activity screening", "settings": "phytotoxicity rating 0-100 (0 no damage, 100 complete death), 14 days after application", "summary_of_the_method": "(§3)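 Rating: 0–100 visual injury, 14 DAA. Application: acetone, 187 l/ha, 15–1000 g ai/ha, flat-fan track sprayer with nozzle 40–45 cm above soil or canopy. Post-emerge runs used 0.25% v/v surfactant on 2–3 leaf plants.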"}, "[14]": {"test_system": "common ragweed (Ambrosia artemisizfolia L., AMBEL)", "assay": "Post-emerge test, greenhouse herbicide activity screening", "settings": "phytotoxicity rating 0-100 (0 no damage, 100 complete death), 14 days after application", "summary_of_the_method": "as §3"}, "[15]": {"test_system": "ivyleaf morningglory (Ipomoea hederacea, IPOHE)", "assay": "Post-emerge test, greenhouse herbicide activity screening", "settings": "phytotoxicity rating 0-100 (0 no damage, 100 complete death), 14 days after application", "summary_of_the_method": "as §3"}, "[16]": {"test_system": "johnsongrass (Sorghum halepense, SORHA)", "assay": "Post-emerge test, greenhouse herbicide activity screening", "settings": "phytotoxicity rating 0-100 (0 no damage, 100 complete death), 14 days after application", "summary_of_the_method": "as §3"}, "[17]": {"test_system": "lambsquarters (Chenopodium album, CHEAL)", "assay": "Post-emerge test, greenhouse herbicide activity screening", "settings": "phytotoxicity rating 0-100 (0 no damage, 100 complete death), 14 days after application", "summary_of_the_method": "as §3"}, "[18]": {"test_system": "large crabgrass (Digitaria sanguinalis, DIGSA)", "assay": "Post-emerge test, greenhouse herbicide activity screening", "settings": "phytotoxicity rating 0-100 (0 no damage, 100 complete death), 14 days after application", "summary_of_the_method": "as §3"}, "[19]": {"test_system": "redroot pigweed (Amaranthus retroflexus, AMARE)", "assay": "Post-emerge test, greenhouse herbicide activity screening", "settings": "phytotoxicity rating 0-100 (0 no damage, 100 complete death), 14 days after application", "summary_of_the_method": "as §3"}, "[20]": {"test_system": "sicklepod (Cassia obtusifolia, CASOB)", "assay": "Post-emerge test, greenhouse herbicide activity screening", "settings": "phytotoxicity rating 0-100 (0 no damage, 100 complete death), 14 days after application", "summary_of_the_method": "as §3"}, "[21]": {"test_system": "velvetleaf (Abutilon theophrasti, ABUTH)", "assay": "Post-emerge test, greenhouse herbicide activity screening", "settings": "phytotoxicity rating 0-100 (0 no damage, 100 complete death), 14 days after application", "summary_of_the_method": "as §3"}, "[22]": {"test_system": "field corn (Zea mays L., var. Dekalb 535, CORN)", "assay": "Post-emerge test, crop safety", "settings": "phytotoxicity rating 0-100 (0 no damage, 100 complete death), 14 days after application", "summary_of_the_method": "as §1"}, "[23]": {"test_system": "upland rice (Oryza sp., var. Tebonnet, RICE)", "assay": "Post-emerge test, crop safety", "settings": "phytotoxicity rating 0-100 (0 no damage, 100 complete death), 14 days after application", "summary_of_the_method": "as §1"}},
  "data": [
    {"compound": "CCc1ccc(C(=O)Nc2c(OC)c(Cl)cc(F)c2-n2c(=O)cc(C(F)(F)F)n(C)c2=O)cc1", "note": "[2-27]", "values": [
      {"measurement": "Pre-emerge Herbicidal Activity AMARE (phytotoxicity rating, scale 0-100)", "setting": "[1]; 63 g ai/ha", "result": 100},
      {"measurement": "Pre-emerge Herbicidal Activity AMARE (phytotoxicity rating, scale 0-100)", "setting": "[1]; 250 g ai/ha", "result": 100},
      {"measurement": "Pre-emerge Herbicidal Activity ECHCG (phytotoxicity rating, scale 0-100)", "setting": "[2]; 63 g ai/ha", "result": 50},
      {"measurement": "Pre-emerge Herbicidal Activity ECHCG (phytotoxicity rating, scale 0-100)", "setting": "[2]; 250 g ai/ha", "result": 100},
      {"measurement": "Pre-emerge Herbicidal Activity AMBEL (phytotoxicity rating, scale 0-100)", "setting": "[3]; 63 g ai/ha", "result": 100},
      {"measurement": "Pre-emerge Herbicidal Activity AMBEL (phytotoxicity rating, scale 0-100)", "setting": "[3]; 250 g ai/ha", "result": 100},
      {"measurement": "Pre-emerge Herbicidal Activity SETVI (phytotoxicity rating, scale 0-100)", "setting": "[4]; 63 g ai/ha", "result": 100},
      {"measurement": "Pre-emerge Herbicidal Activity SETVI (phytotoxicity rating, scale 0-100)", "setting": "[4]; 250 g ai/ha", "result": 100},
      {"measurement": "Pre-emerge Herbicidal Activity IPOHE (phytotoxicity rating, scale 0-100)", "setting": "[5]; 63 g ai/ha", "result": 80},
      {"measurement": "Pre-emerge Herbicidal Activity IPOHE (phytotoxicity rating, scale 0-100)", "setting": "[5]; 250 g ai/ha", "result": 100},
      {"measurement": "Pre-emerge Herbicidal Activity SORHA (phytotoxicity rating, scale 0-100)", "setting": "[6]; 63 g ai/ha", "result": 30},
      {"measurement": "Pre-emerge Herbicidal Activity SORHA (phytotoxicity rating, scale 0-100)", "setting": "[6]; 250 g ai/ha", "result": 80},
      {"measurement": "Pre-emerge Herbicidal Activity CHEAL (phytotoxicity rating, scale 0-100)", "setting": "[7]; 63 g ai/ha", "result": 100},
      {"measurement": "Pre-emerge Herbicidal Activity CHEAL (phytotoxicity rating, scale 0-100)", "setting": "[7]; 250 g ai/ha", "result": 100},
      {"measurement": "Pre-emerge Herbicidal Activity DIGSA (phytotoxicity rating, scale 0-100)", "setting": "[8]; 63 g ai/ha", "result": 95},
      {"measurement": "Pre-emerge Herbicidal Activity DIGSA (phytotoxicity rating, scale 0-100)", "setting": "[8]; 250 g ai/ha", "result": 100},
      {"measurement": "Pre-emerge Herbicidal Activity CASOB (phytotoxicity rating, scale 0-100)", "setting": "[9]; 63 g ai/ha", "result": 60},
      {"measurement": "Pre-emerge Herbicidal Activity CASOB (phytotoxicity rating, scale 0-100)", "setting": "[9]; 250 g ai/ha", "result": 100},
      {"measurement": "Pre-emerge Herbicidal Activity ABUTH (phytotoxicity rating, scale 0-100)", "setting": "[10]; 63 g ai/ha", "result": 100},
      {"measurement": "Pre-emerge Herbicidal Activity ABUTH (phytotoxicity rating, scale 0-100)", "setting": "[10]; 250 g ai/ha", "result": 100},
      {"measurement": "Pre-emerge crop damage CORN (phytotoxicity rating, scale 0-100)", "setting": "[11]; 63 g ai/ha", "result": 20},
      {"measurement": "Pre-emerge crop damage CORN (phytotoxicity rating, scale 0-100)", "setting": "[11]; 250 g ai/ha", "result": 90},
      {"measurement": "Pre-emerge crop damage RICE (phytotoxicity rating, scale 0-100)", "setting": "[12]; 63 g ai/ha", "result": 70},
      {"measurement": "Pre-emerge crop damage RICE (phytotoxicity rating, scale 0-100)", "setting": "[12]; 250 g ai/ha", "result": 90},
      {"measurement": "Post-emerge Herbicidal Activity ECHCG", "setting": "[13]; 63 g ai/ha", "result": 0},
      {"measurement": "Post-emerge Herbicidal Activity ECHCG", "setting": "[13]; 250 g ai/ha", "result": 80},
      {"measurement": "Post-emerge Herbicidal Activity AMBEL", "setting": "[14]; 63 g ai/ha", "result": 60},
      {"measurement": "Post-emerge Herbicidal Activity AMBEL", "setting": "[14]; 250 g ai/ha", "result": 90},
      {"measurement": "Post-emerge Herbicidal Activity IPOHE", "setting": "[15]; 63 g ai/ha", "result": 90},
      {"measurement": "Post-emerge Herbicidal Activity IPOHE", "setting": "[15]; 250 g ai/ha", "result": 100},
      {"measurement": "Post-emerge Herbicidal Activity SORHA", "setting": "[16]; 63 g ai/ha", "result": 20},
      {"measurement": "Post-emerge Herbicidal Activity SORHA", "setting": "[16]; 250 g ai/ha", "result": 85},
      {"measurement": "Post-emerge Herbicidal Activity CHEAL", "setting": "[17]; 63 g ai/ha", "result": 90},
      {"measurement": "Post-emerge Herbicidal Activity CHEAL", "setting": "[17]; 250 g ai/ha", "result": 100},
      {"measurement": "Post-emerge Herbicidal Activity DIGSA", "setting": "[18]; 63 g ai/ha", "result": 10},
      {"measurement": "Post-emerge Herbicidal Activity DIGSA", "setting": "[18]; 250 g ai/ha", "result": 70},
      {"measurement": "Post-emerge Herbicidal Activity AMARE", "setting": "[19]; 63 g ai/ha", "result": 100},
      {"measurement": "Post-emerge Herbicidal Activity AMARE", "setting": "[19]; 250 g ai/ha", "result": 100},
      {"measurement": "Post-emerge Herbicidal Activity CASOB", "setting": "[20]; 63 g ai/ha", "result": 50},
      {"measurement": "Post-emerge Herbicidal Activity CASOB", "setting": "[20]; 250 g ai/ha", "result": 90},
      {"measurement": "Post-emerge Herbicidal Activity ABUTH", "setting": "[21]; 63 g ai/ha", "result": 100},
      {"measurement": "Post-emerge Herbicidal Activity ABUTH", "setting": "[21]; 250 g ai/ha", "result": 100},
      {"measurement": "Post-emerge Herbicidal Activity CORN (crop damage)", "setting": "[22]; 63 g ai/ha", "result": 50},
      {"measurement": "Post-emerge Herbicidal Activity CORN (crop damage)", "setting": "[22]; 250 g ai/ha", "result": 95},
      {"measurement": "Post-emerge Herbicidal Activity RICE (crop damage)", "setting": "[23]; 63 g ai/ha", "result": 60},
      {"measurement": "Post-emerge Herbicidal Activity RICE (crop damage)", "setting": "[23]; 250 g ai/ha", "result": 95}
    ]}
  ]
}
